B1: wild type AsnO (Streptomyces coelicolor A3(2)) (protein)
chain: MAANAAGPASRYDVTLDQSDAELVEEIAWKLATQATGRPDDAEWVEAARNAWHAWPATLRRDLAGFRRDSGPDGAIVLRGLPVDSMGLPPTPRVNGSVQREASLGAAVLLMTACGLGDPGAFLPEKNGALVQDVVPVPGMEEFQGNAGSTLLTFHNENAFHEHRPDFVMLLCLRADPTGRAGLRTACVRRVLPLLSDSTVDALWAPEFRTAPPPSFQLSGPEEAPAPVLLGDRSDPDLRVDLAATEPVTERAAEALRELQAHFDATAVTHRLLPGELAIVDNRVTVHGRTEFTPRYDGTDRWLQRTFVLTDLRRSRAMRPADGYVLGAAPQPA

Experiments:
[1] = tested on: glutamate transporters; conditions: literature statement; cited from earlier work
[2] = biological target: T1, AsnO D241N (Streptomyces coelicolor, UniProt Q9Z4Z5, D241N/M1S); assay: Substrate specificity of the mutated protein AsnO D241N, HPLC/MS; format: biochemical; parameters: made in house; host or cells: E. coli BL21 (DE3), pQTEV vector; conditions: amino acid 1.5 mM, 16 h at 16° C., (NH4)2Fe(SO4)2 1 mM, α-ketoglutarate 4 mM, catalase, HEPES pH 7.5
T1 sequence (Q9Z4Z5 other isoform, or with tags, fused parts or gaps D241N): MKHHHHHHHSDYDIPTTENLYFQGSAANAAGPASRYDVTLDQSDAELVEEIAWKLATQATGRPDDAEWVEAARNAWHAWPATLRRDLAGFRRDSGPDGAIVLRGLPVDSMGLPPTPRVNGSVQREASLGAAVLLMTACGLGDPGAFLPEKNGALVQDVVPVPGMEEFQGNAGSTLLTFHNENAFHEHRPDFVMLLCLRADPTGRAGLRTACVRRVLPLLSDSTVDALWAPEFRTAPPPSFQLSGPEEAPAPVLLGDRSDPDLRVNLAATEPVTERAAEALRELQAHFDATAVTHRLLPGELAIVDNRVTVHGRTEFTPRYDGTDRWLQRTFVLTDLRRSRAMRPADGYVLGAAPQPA
Protocol: The specificity of AsnO D241N for the conversion of L-Asp in L-threo-3-hydroxyaspartate is examined by incubating this mutated protein during 16 h at 16° C. with the amino acids (1.5 mM) listed in Table 1, the cofactor (NH4)2Fe(SO4)2 (1 mM), the cosubstrate α-ketoglutarate (4 mM) and 20 μg catalase in […] of a 50 mM HEPES buffer (pH 7.5). The catalase is added in order to quench reactive oxygen species and to prevent hereby the autoxidation of the enzyme. Controls are carried out in the absence of AsnO D241N.
The reaction is stopped by the addition of 50-200 μL of a 4% solution (V/V) of nonafluoropentane acid and subsequently the hydroxylation of the amino acid substrate to the respectively corresponding hydroxy amino acid is examined by means of reversed phase HPLC/MS. Column: Hypercarb (Thermo Electron Corporation, pore diameters of 250 Å, particle size of 5 μM, 100% carbon). Mobile phases: A=20 mM aqueous nonafluoropentane acid, B=acetonitrile. Gradient: 0-10% B in 12 min, flow rate 0.2 mL/min at 17.5° C.
The reaction product of the incubation of the respective amino acid with AsnO D241N is carried out by means of highest resolution MS with an API Qstar Pulsar I (Applied Biosystems).

[3] = biological target: T1, AsnO D241N; conditions: AsnO D241N 40 μM, substrate L-Asp 50 μM to 2 mM
Protocol: For the evaluation of the kinetic parameters at different concentrations of the substrate L-Asp (50 μM to 2 mM), the latter was incubated as described under practical embodiment 3 with AsnO D241N (40 μM), 1.0 mM (NH4)2Fe(SO4)2 as source of the iron cofactor and 1.0 mM α-ketoglutarate (cosubstrate) and the enzyme assay was stopped at different points in time by adding nonafluoropentane acid.
The kinetic parameters of AsnO D241N are subsequently determined by means of a Lineweaver-Burk equation (FIG. 4b).

[4] = biological target: T1, AsnO D241N; assay: Activity of the AsnO D241N mutant: conversion of L-Asp, HPLC MS; format: biochemical; parameters: made in house; host or cells: E. coli BL21 (DE3), pQTEV vector; conditions: AsnO D241N 40 μM, 1.5 mM L-Asp, 1.0 mM (NH4)2Fe(SO4)2, 1.0 mM α-ketoglutarate, 16 h, 16° C.
Protocol: In order to evaluate the activity of the AsnO D241N mutant, the purified enzyme
The reaction is monitored by means of HPLC MS, by scanning the masses for L-Asp ([M+H]^+=[…]) and its hydroxylated form ([M+H]^+=150.04 Da). […] (FIG. 3a). In the control reaction, in which no enzyme is added, only L-Asp can be detected (FIG. 3b). Commercially available L-Asp (Bachem) as well as L-threo-3-hydroxyaspartate (Tocris Bioscience) are used as standards for the comparison of the retention times with HPLC.
Column: Hypercarb (Thermo Electron Corporation, pore diameters of 250 Å, particle size of 5 μM, 100% carbon). Mobile phases: A=20 mM aqueous nonafluoropentane acid, B=acetonitrile Gradient: 0-10% B in 12 min, flow rate 0.2 mL 1 min at 17.5° C. • FIG. 3a: negative control, no addition of enzyme (=AsnO D241N) • Only L-Asp is detected. • Retention time: 3.72 min; • Mber=134.045, Mgef=134.048 • FIG. 3b: incubation of L-Asp with AsnO D241N • After 16 h of incubation at 16° C. only • L-threo-3-hydroxyaspartate is detected. • Retention time 3.39 min; • Mber=150.040, Mgef=150.042

[5] = tested on: wild type AsnO; assay: Kinetic parameters of the wild type AsnO for L-Asn (comparison); format: biochemical, Streptomyces coelicolor; conditions: wild type AsnO with L-Asn versus AsnO D241N with L-Asp
[6] = substrate: NC(=O)C[C@H](N)C(=O)O; assay: as above; format: biochemical, Streptomyces coelicolor; conditions: other: wild type AsnO, substrate L-Asn

Molecule | hydroxylation [2] | other results
N[C@H](C(=O)O)[C@H](O)C(=O)O [L-threo-hydroxaspartate, L-threo-hydroxyaspartate] | – | inhibition of the function of the glutamate transporters [1]: inhibits the function of the glutamate transporters
CC[C@H](C)[C@H](N)C(=O)O [L-Ile] | no | –
N[C@@H](CC(=O)O)C(=O)O [L-Asp, L-aspartate] | yes | Km [3]: 457 ± 31 µM; kcat [3]: 0.0167 ± 0.0017 s⁻¹; conversion of L-aspartate to L-threo-3-hydroxyaspartate [4]: Quantitative conversion; conversion of L-aspartate to L-threo-3-hydroxyaspartate ([4]; listed as L-aspartate): quantitative conversion
NC(C(=O)O)C(OCc1ccccc1)C(=O)O [L-TBOA] | – | inhibition of the function of the glutamate transporters [1]: also comprises this inhibitor effect
N[C@@H](Cc1ccccc1)C(=O)O [L-Phe] | no | –
N[C@@H](Cc1c[nH]c2ccccc12)C(=O)O [L-Trp] | no | –
CC(C)[C@H](N)C(=O)O [L-Val] | no | –
NC(=O)CC[C@H](N)C(=O)O [L-Gln] | no | –
NC(=O)C[C@H](N)C(=O)O [L-Asn, L-asparagine] | no | kcat of wild type AsnO relative to AsnO D241N [5]: 300 times
N[C@H](CC(=O)O)C(=O)O [D-Asp] | no | –
N[C@@H](CCC(=O)O)C(=O)O [L-Glu, L-glutamate] | no | –
B1 | – | Km [6]: 478 ± 67 µM; kcat [6]: 4.97 ± 0.317 s⁻¹

Reference: patent US20100184189A1, “PROTEIN FOR THE CHEMOENZYMATIC PRODUCTION OF L-THREO-HYDROXYASPARTATE” (priority 2007, published 2010)
